# From patent EP4282435A1, “FORMULATIONS OF ACTIVE PHARMACEUTICAL INGREDIENTS AND EXCIPIENTS IN ICELLS VIA HYDROPHOBIC ION PAIRING” (Danmarks Tekniske Universitet, priority 2022, dated 2023)
# Like-named read-outs stand apart in the source and are kept apart here.
# Legend:
# [1] = Solubility and stability of ICG HIP complex in different solvents (HPLC); assay type: physicochemical; conditions: native non-complexed ICG in water, 5 days at 25°C in the dark, HPLC 280 nm
# Description: (§1) Chloroform was dried under a gentle flow of nitrogen.
# HPLC analysis: Samples were analyzed on a Shimadzu Nexera-X HPLC. […] The solvent system consisted of mobile phase A (5% MeCN, 0.1% TFA in water) and mobile phase B (0.1% TFA in MeCN). The gradient was 0% B for 1 min, 0 to 100% B in 5 min, 100% B for 4 min, 100% B to 0% B in 0.5 min, 0% B for 1 min. UV detection at 280 nm was used to measure the AUC of ICG and its related degradation products.
# [2] = Solubility of ICG HIP complexes in ICell (visual)
# Description: (§2) For each co-ion, the chloroform phase was isolated and transferred to new glass vials. Chloroform was dried under a gentle flow of nitrogen.
# (§3) 1 g of ICell was added to each vial containing the previously isolated ICG HIP complexes. In addition, 1 g of ICell was added to a vial containing 2.5 mg of native ICG.
# [3] = In vitro release of clindamycin-HIP complexes from ICell into PBS; assay type: in vitro ADME; conditions: clindamycin or its HIP complex with the named co-ion, SuBen:GTH:EtOH (60:20:20) ICell, 20 mg/g, PBS 37°C, after 8 days, mean (n=2)
# Description: ICell formulation: […] […] In vitro release: 50 μL of each ICell were individually injected in 8-mL glass vials containing 2 mL PBS, for which the exact amount of injected ICell was weighed. The vials were incubated at 37 °C and at each sampling point 1 mL of PBS was taken. 1 mL of fresh buffer was added immediately to the vial to replace the taken sample. The samples were then analyzed by HPLC and the concentration of drug in the release media was calculated. UHPLC method: HPLC analyses were done using a Shimadzu Nexera-X UHPLC instrument with a PDA detector. The samples were injected (40 μL) onto a Waters Terra BEH C8 column (2.5μm, 4.6x75mm, temperature 25°C) at a flow rate of 0.8 mL/min.
# [4] = HIP complexation efficacy of clindamycin (UHPLC of organic phase); assay type: physicochemical; conditions: percentage of clindamycin complexed with the named co-ion, 1:1 charge ratio
# Description: HIP complexation via Bligh-Dyer method: […] Moreover, chloroform and methanol were mixed before the addition of the aqueous clindamycin solution. […] The dried complex was re-suspended in methanol and analyzed by UHPLC to determine the amount of clindamycin. HIP complexation via modified Bligh-Dyer method: […] Next, 4 mL of chloroform were added and the resulting monophase was shaken at 400 rpm at room temperature for 30 min. 4 mL of chloroform followed by 4 mL of water were added to form a biphasic system. Isolation and analysis of the dried complex was done as described beforehand for the Bligh-Dyer method. UHPLC method: Samples were analyzed on a Shimadzu Nexera-X with a PDA detector. Samples were injected (5 μL) onto a Waters Terra XBridge BEH C8 column (2.5 μm, 4.6x75mm, temperature 25 °C) at a flow rate of 1 mL/min.
# [5] = Stability of ICG HIP complexes in ICell (HPLC); assay type: physicochemical; conditions: ICG complexed with the named co-ion in SuBen:GTO:EtOH (60:25:15) ICell, 7 weeks in the dark at room temperature, percentage AUC of ICG at 280 nm
# Description: as §2, §3
# Stability study: After preparation, ICells were stored at room temperature and protected from light. After 7 weeks, approximately 25 µL of each formulation were taken and dissolved in 500 µL of acetonitrile. The samples were then analyzed by HPLC. HPLC analysis: Samples were analyzed on a Shimadzu Nexera-X HPLC. Samples were injected (5 µL) onto a Waters Terra XBridge BEH C18 column (2.5 µm, 4.6x75mm, temperature 25 °C) at a flow rate of 1 mL/min. The solvent system consisted of mobile phase A (5% MeCN, 0.1% TFA in water) and mobile phase B (0.1% TFA in MeCN). The gradient was 0% B for 1 min, 0 to 100% B in 5 min, 100% B for 4 min, 100% B to 0% B in 0.5 min, 0% B for 1 min. UV detection at 280 nm was used to measure the AUC of ICG and its related degradation products.
# [6] = Description: After removing the supernatant, the complex was dissolved in methanol, transferred to a new glass vial and the solvent was dried under a gentle nitrogen flow. […] The chloroform phase was isolated, transferred to a new vial and subsequently chloroform was dried under a gentle flow of nitrogen.
# [7] = HIP complexation of gentamicin (HPLC-ELSD of supernatant or aqueous phase); assay type: physicochemical; conditions: Bligh-Dyer method, 1:1 charge ratio; gentamicin not detected in aqueous phase
# Description: HIP complexation via organic-solvent free method: […] A white precipitate was obtained, which corresponded to the HIP complex. The supernatant was removed and its gentamicin content was evaluated by HPLC. […] A sample of the aqueous phase was taken to evaluate its gentamicin content by HPLC. HPLC method: Samples were analyzed on a Shimadzu Nexera-i with an evaporative light scattering detector (ELSD). Samples were injected (5 µL) onto a Waters Terra XBridge BEH C8 column (5 µm, 4.6x150mm, temperature 25 °C) at a flow rate of 1 mL/min.
# S. aureus strain S54F9 = assay: Microbiological assay, Disc Diffusion Assay; assay type: cell-based, Staphylococcus aureus; conditions: 24 hours at 37 °C
# Description: Then, 3 wells were carved out with the use of the broad side of an autoclaved 1 ml pipette tip.
# This setup was repeated for three experimental replicates. Each plate was incubated for 24 hours at 37 °C, before inspection.
# Then, 3 wells were carved out with the use of the broad side of an autoclaved 1 ml pipette tip. In one well, 0.5 mg linoleic acid was injected as 90 µl 0.22 µm-sterile-filtered dimethyl sulfoxide. In a second well, 90 µl autoclaved phosphate-buffered saline with 0.5 mg vancomycin hydrochloride was injected. […] The plate was incubated for 24 hours at 37 °C, before inspection.
# [8] = remark: listed apart in the source
# Text: The chloroform phase was isolated, transferred to a new vial and subsequently chloroform was dried under a gentle flow of nitrogen.
# [9] = HIP complexation of SIINFEKL with SDS (HPLC of supernatant); assay type: physicochemical
# Description: (1.5 mg/mL) was dissolved in 0.01 M HCI. […] The […] and co-ion solution were mixed in equal volumes, followed by shaking and centrifugation steps as described in method 1 of example 2. The supernatant was removed the content of […] was evaluated by HPLC.
# HPLC method: Samples were analyzed on a Shimadzu Nexera-X with PDA. Samples were injected (40 µL) onto a Waters Terra XBridge BEH C8 column (2.5 µm, 4.6x150mm, temperature 25 °C) at a flow rate of 1 mL/min. The solvent system consisted of mobile phase A (5% MeCN, 0.1% TFA in water) and mobile phase B (0.1% TFA in MeCN). The gradient was 0% B for 1.5 min, 0 to 100% B in 7 min, 100% B for 1.5 min, 100% B to 0% B in 0.5 min, 0% B for 1.5 min. […] was quantified by UV at 220 nm.
# [10] = HIP complexation of ICG by method 3 (Bligh-Dyer), judged by colour of the phases; assay type: physicochemical; conditions: co-ion:ICG 1:1 molar ratio
# Description: HIP method 3 (Bligh-Dyer method): ICG (5 mg/mL) was dissolved in a 0.01 M HCI solution. Benethamine, dodecylamine, CTAB and tetraethyl ammonium bromide were used as co-ions. Each co-ion was dissolved in methanol in a 1:1 molar ratio to ICG. In an 8-mL glass vial, 1 mL of chloroform, 2 mL of co-ion solution (methanol), and 1 mL of ICG solution (water) were added in that order (methanol without co-ions was used as a control). The vials was gently shaken (i.e., slowly turned over 2-3 times) and incubated for 45 min at room temperature in the dark. Then 1 mL of water was added followed by 1 mL of chloroform. The vial was gently shaken again and incubated for 45 min at room temperature in the dark. The resulting HIP complex is present in the lower organic phase.
# DB36 and ICG are negatively charged molecules, which are very soluble in water, but not in organic solvents such as chloroform. All the used co-ions have a positive charge and they could form hydrophobic ion pairing (HIP) complexes with either DB36 or ICG. When solubilized, DB36 and ICG form dark blue or green solutions, respectively. Thus, successful HIP complexation was assessed by either observing precipitates (for method 1) or a change in coloration in the chloroform phase (for methods 2 and 3). […]
# [11] = Effect of co-ions on surface tension of ICell (visual appearance of injected depots); assay type: physicochemical; conditions: co-ion alone (2 mM or 10 mM, no ICG) in SuBen:GTH:DMSO or SuBen:GTO:EtOH ICell, in PBS, 7 days at 37°C
# Description: ICell formulation: A SuBen:GTH:DMSO (60:20:20), SuBen:GTH:DMSO (60:20:15) and a SuBen:GTO:EtOH (60:25:10) ICell were prepared as described in example 4. Effect on surface tension without ICG: TOAB was dissolved in DMSO and EtOH to produce solutions with a concentration of […]. CTAB was dissolved in EtOH to produce solutions with a concentration of […]. 0.03 g of each co-ion solution were individually added to 0.57 g of either a SuBen:GTH:DMSO (60:20:15) or a SuBen:GTO:EtOH (60:25:10) ICell. Thus, the final co-ion concentration in each ICell was 2mM or 10 mM. 50 µL of the previously prepared ICells were injected in glass vials containing 2 mL PBS. The vials were incubated at 37°C during 7 days and the visual appearance of the injected depots was evaluated.
# as §1
# Effect on surface tension with ICG: SuBen:GTH:DMSO (60:20:20) ICell was proportionally added to the previously isolated ICG HIP complexes to obtain formulations with a final ICG concentration of either 0.1 or 2.5 mg/g as described in Table 4. 50 µL of these ICells were injected in glass vials containing 2 mL PBS. The vials were incubated at 37°C during 3 days and the visual appearance of the injected depots was evaluated.
# [12] = ICG or its HIP complex with the named co-ion in SuBen:GTO:EtOH (60:25:15) ICell, about 2.5 mg ICG per 1 g ICell, visual
smiles,measurement,setting,value
"CC1(C)C(/C=C/C=C/C=C/C=C2\N(CCCCS(=O)(=O)O)c3ccc4ccccc4c3C2(C)C)=[N+](CCCCS(=O)(=O)[O-])c2ccc3ccccc3c21 [ICG, indocyanine green, reference compound]",stability,[1],no longer visible in the chromatogram
same,solubility in ICell,[2]; [12],not soluble
CCCCCCCC/C=C\CCCCCCCC(=O)[O-].[Na+] [Sodium oleate],release of clindamycin from the ICell,[3],96%
same,Complexation efficacy Bligh-Dyer method,[4],72%
same,Complexation efficacy Modified Bligh-Dyer method,[4],72%
CC[N+](CC)(CC)CC.[Br-] [Tetraethyl ammonium bromide],ICG % AUC,[5],96.3%
CCCCC(CC)COC(=O)CC(C(=O)OCC(CC)CCCC)S(=O)(=O)O (stereo not shown) [Sodium docusate],solubility in ICell,[6],easily solubilized
same,gentamicin complexed,[7],100%
"CC(=O)NC[C@H]1CN(c2ccc(N3CCOCC3)c(F)c2)C(=O)O1 [linezolid, Linezolid]",antimicrobial activity (clearing zone) after release from ICell,"S. aureus strain S54F9; Example 23, 50 µl ICell per well (gentamicin-docusate 20 mg/g, Linezolid 15 mg/g in SuBen:GTO:EtOH (60:25:15))",clearing zone
CCCCCCC/C=C\C(=O)O [C2DA],solubility in ICell,"[8]; clindamycin or its HIP complex with the named co-ion, SuBen:GTH:EtOH (60:20:20) ICell, clindamycin 20 mg/g, visual",easily solubilized
same,Complexation efficacy Bligh-Dyer method,[4],80%
same,Complexation efficacy Modified Bligh-Dyer method,[4],72%
CC[C@H](C)[C@H](NC(=O)[C@@H](NC(=O)[C@@H](N)CO)[C@@H](C)CC)C(=O)N[C@@H](CC(N)=O)C(=O)N[C@@H](Cc1ccccc1)C(=O)N[C@@H](CCC(=O)O)C(=O)N[C@@H](CCCCN)C(=O)N[C@@H](CC(C)C)C(=O)O [SIINFEKL] [reference compound],solubility in methanol,[9],insoluble
CCCCCCCCCCCCN [Dodecylamine],ICG % AUC,[5],95.3%
same,ICG complexed,[10],~100%
same,solubility in ICell,[2],easily solubilized
CCCCC/C=C\C/C=C\CCCCCCCC(=O)O [Linoleic acid],solubility in ICell,[8],easily solubilized
same,antimicrobial activity (clearance of S. aureus),"S. aureus strain S54F9; Example 24, wells: 0.5 mg linoleic acid in DMSO, 0.5 mg vancomycin hydrochloride, 45 µl HIP complex + 45 µl PBS","has an antimicrobial effect, but to an extent lesser than vancomycin"
same,Complexation efficacy Bligh-Dyer method,[4],64%
same,Complexation efficacy Modified Bligh-Dyer method,[4],80%
CC[C@H](C)[C@H](NC(=O)[C@@H](NC(=O)[C@@H](N)CO)[C@@H](C)CC)C(=O)N[C@@H](CC(N)=O)C(=O)N[C@@H](Cc1ccccc1)C(=O)N[C@@H](CCC(=O)O)C(=O)N[C@@H](CCCCN)C(=O)N[C@@H](CC(C)C)C(=O)O [HIP complex of SIINFEKL with SDS],solubility in methanol,[9],soluble
CCCCCCCCCCCCCCCC[N+](C)(C)C [CTAB],ICG % AUC,[5],97.6%
same,ICG complexed,[10],~100%
same,visual appearance of injected ICell depots (surface tension),[11],had flatten
same,solubility in ICell,[2]; [12],easily solubilized
